{"source": "patent US5512548A", "about": "“CETP inhibitor polypeptide, antibodies against the synthetic polypeptide and prophylactic and therapeutic anti-atherosclerosis treatments” (Southwest Foundation for Biomedical Research, priority 1994, dated 1996)", "tested_on": "CETP", "test": "Cholesteryl ester transfer assay (CE transfer from 3H CE-HDL3 to VLDL+LDL with LPDS as CETP source)", "assay_type": "biochemical, baboon (Papio sp.)", "details": "electroeluted from gels, increasing concentrations, lipoproteins from low HDL1 baboons", "protocol": "The CE transfer activity of a sample was assayed by a modification of a procedure described previously (Kushwaha et al, (1986), supra).\nBriefly, ^3 H CE-labeled HDL3 containing 50-100 μg of CE from low HDL1 baboons was incubated with VLDL+LDL containing 100-300 μg CE in the presence of LPDS. The acceptor lipoproteins and the LPDS were obtained from low HDL1 baboon plasma (chow diet). In some cases the HDL3 was obtained from high HDL1 baboons maintained on the HCHF diet.\nThe incubations were carried out at 4° C. (control) and 37° C. for 4-6 hrs, and terminated by placing the samples on ice. The assay mixture was then ultracentrifuged to separate VLDL+LDL having a […], and the radioactivity in the lipoproteins was counted as described previously (Kushwaha et al, (1986), supra). Any difference observed in the radioactivity transferred from HDL to VLDL+LDL at 4° C. and 37° C. was attributed to CETP activity in the LPDS.\nTime course experiments gave a linear response up to 7 hrs. Similarly, the CETP activity was linear with increasing LPDS, up to 140 μl LPDS, which was derived from an equivalent volume of plasma. […]\nThe percent difference between the control experiment and the assay with inhibitor peptide was expressed as the inhibitor activity. […]"}
{"substance": "Albumin", "values": [{"measurement": "effect on the transfer of CE from HDL to VLDL+LDL (CETP activity)", "value": "no effect"}]}
